Here are results for 2 compounds from patent publication US20070218555A1, “Anti-Microbial Activity Of Biologically Stabilized Silver Nano Particles” (priority 2004, published 2007).

Data set [1] has as its system Pseudomonas aeruginosa MDR strain. Kind of data set: Interaction of drugs with silver nano particles, checkerboard macrodilution (FICI). The data set is classed as cell-based. The following applies: drug in combination with biologically stabilized silver nano particles. As for the experimental part: Interaction of drugs with biologically stabilized silver nano particles. A two-dimensional checkerboard macrodilution technique was used to characterize interactions between biologically stabilized silver nano particles and drug (viz. Gentamicin, Penicillin, Cefotaxime, Ceptazidime, Kanamycin, Vancomycin). six experiments were performed for Pseudomonas aeruginosa MDR strain described above. Inoculum was prepared similarly to those for susceptibility testing. Individual drug with biologically stabilized silver nano particles were diluted in serial twofold dilutions, and concentrations ranged from four fold below to four folds above the MIC. The highest dilution of the drug combination with biologically stabilized silver nano particles that inhibits the visible growth of the test organism was regarded as the fractional inhibitory concentration (FIC). The fractional inhibitory concentration (FIC) index (FICI) was used to define the interaction between the two drugs. The FICI is the sum of the FICs of each of the drugs. The FIC was calculated as follows: MIC of the drug tested in combination/MIC of the drug tested alone. The interaction was defined as synergistic if the FICI was […], as additive if the FICI was >0.5 to 1.0, as indifferent if the FICI was >1.0 to 2.0, and as antagonistic if the FICI was >2.0.

Data set [2] concerns human dermal fibroblast cells. The following applies: cited from earlier work.

On to `CC(C)(O/N=C(\C(=O)N[C@@H]1C(=O)N2C(C(=O)[O-])=C(C[n+]3ccccc3)CS[C@H]12)c1csc(N)n1)C(=O)O` [ceptazidime], for which the “interaction by mean FICI” value in data set [1] is given as “partially synergistic”.
In the case of `O=[N+]([O-])[O-].[Ag+]` [silver nitrate], in data set [2], the “low concentration of silver ions showing inhibitory effect” value is on record as 8.2 μM/l.
